Test results: patent publication US8431593B2, “Heteroaryl amide derivatives” (H. Lundbeck A/S, priority 2006, dated 2013)
Where two headings read alike, the source gives them in different places. Each block holds one molecule with its values, some of them ahead of it.

Molecular target: T1, P2X7 receptor (Homo sapiens, UniProt Q99572)
T1 construct: host or cells: SH-SY5Y
T1 sequence (Q99572 1-595): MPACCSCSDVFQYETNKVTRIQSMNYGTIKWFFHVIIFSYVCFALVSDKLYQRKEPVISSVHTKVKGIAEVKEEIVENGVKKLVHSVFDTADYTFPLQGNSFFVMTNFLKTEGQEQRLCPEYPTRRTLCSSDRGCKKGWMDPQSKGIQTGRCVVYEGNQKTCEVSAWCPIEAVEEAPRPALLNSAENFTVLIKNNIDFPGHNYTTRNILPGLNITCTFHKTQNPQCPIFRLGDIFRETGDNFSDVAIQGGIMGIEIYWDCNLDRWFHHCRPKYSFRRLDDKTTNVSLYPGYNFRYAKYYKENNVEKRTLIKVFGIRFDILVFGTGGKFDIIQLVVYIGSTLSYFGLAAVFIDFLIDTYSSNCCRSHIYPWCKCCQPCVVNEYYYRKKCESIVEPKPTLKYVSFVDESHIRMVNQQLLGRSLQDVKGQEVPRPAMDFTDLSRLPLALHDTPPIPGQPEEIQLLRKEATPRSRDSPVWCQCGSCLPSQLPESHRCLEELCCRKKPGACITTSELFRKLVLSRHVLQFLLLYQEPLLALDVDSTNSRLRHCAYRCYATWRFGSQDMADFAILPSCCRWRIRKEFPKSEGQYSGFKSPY
Assay: P2X7 calcium mobilization assay, high throughput, antagonist activity (Example 4A)
Assay type: cell-based
Conditions: read-out: IC50
Method in brief: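 100,000 cells/well, plated day -1. Dye 1 h → rinse → compound 1 h, RT → FLIPR^TETRA Ca2+ mobilization. Max RFU minus mean negative control (no agonist); mean agonist-well max as positive control.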

[1] = SH-SY5Y cells, 50% decrease in fluorescence response to 80 μM BzATP
[2] = 50% decrease in the fluorescence response of cells exposed to 80 μM of 2′(3′)-O-(4-benzoyl-benzoyl)adenosine 5′-triphosphate, Example 4A
[3] = fluorescence response of cells exposed to 80 μM 2′(3′)-O-(4-benzoyl-benzoyl)adenosine 5′-triphosphate, Example 4A
[4] = 50% decrease in the fluorescence response of cells exposed to 80 μM 2′(3′)-O-(4-benzoyl-benzoyl)adenosine 5′-triphosphate, Example 4A
[5] = 50% decrease in the fluorescence response of cells exposed to 80 μM of 2′(3′)-O-(4-benzoyl-benzoyl)adenosine 5′-triphosphate, determined as in Example 4A

Compound: CCC(C)NC(=O)Cc1cn2c(C(=O)NCC34CC5CC(CC(C5)C3)C4)cccc2n1 (stereo not shown) [Compound 152, N-(adamantan-1-ylmethyl)-2-[2-(sec-butylamino)-2-oxoethyl]imidazo[1,2-a]pyridine-5-carboxamide]
IC50 [1]: < 2 µM

Compound: O=C(NCC12CC3CC(CC(C3)C1)C2)c1cccc2nc(CN3CCC(F)(F)CC3)cn12 [Compound 290, N-(adamantan-1-ylmethyl)-2-[(4,4-difluoropiperidin-1-yl)methyl]imidazo[1,2-a]pyridine-5-carboxamide]
IC50 [3]: < 2 µM

Compound: NC(=O)CNC(=O)Cc1cn2c(C(=O)NCC34CC5CC(CC(C5)C3)C4)cccc2n1 [Compound 24, N-(adamantan-1-ylmethyl)-2-{2-[(2-amino-2-oxoethyl)amino]-2-oxoethyl}imidazo[1,2-a]pyridine-5-carboxamide]
IC50 [1]: < 2 µM

Compound: CC(C)N(CCO)C(=O)c1cn2c(C(=O)NCC34CC5CC(CC(C5)C3)C4)cccc2n1 [Compound 697, 5-N-(adamantan-1-ylmethyl)-2-N-(2-hydroxyethyl)-2-N-isopropylimidazo[1,2-a]pyridine-2,5-dicarboxamide]
IC50 [2]: < 2 µM

Compound: CC(C)CC(CNC(=O)c1cccc2nc(C(=O)N3CC[C@@H](N)C3)cn12)c1cccnc1 (stereo partly shown) [Compound 746, 2-[(3-aminopyrrolidin-1-yl)carbonyl]-N-(4-methyl-2-pyridin-3-ylpentyl) imidazo[1,2-a]pyridine-5-carboxamide]
IC50 [2]: < 2 µM

Compound: C[C@@H]1CN(C(=O)Cc2cn3c(C(=O)NC[C@@H]4CC[C@@H]5C[C@H]4C5(C)C)cccc3n2)CCN1 [Compound 564, N-{[(1R,2R,5R)-6,6-dimethylbicyclo[3.1.1]hept-2-yl]methyl}-2-{2-[(3R)-3-methylpiperazin-1-yl]-2-oxoethyl}imidazo[1,2-a]pyridine-5-carboxamide]
IC50 [4]: < 2 µM

Compound: O=C(NCCCN1CCOCC1)c1cn2c(C(=O)NCC34CC5CC(CC(C5)C3)C4)cccc2n1 [Compound 654, 5-N-(adamantan-1-ylmethyl)-2-N-(3-morpholin-4-ylpropyl)imidazo [1,2-a]pyridine-2,5-dicarboxamide]
IC50 [2]: < 2 µM

Compound: CC(C)CC(CNC(=O)c1cccc2nc(C(=O)N3CCC[C@@H](N)C3)cn12)c1ccc(Cl)cc1 (stereo partly drawn) [Compound 832, 2-{[(3R)-3-aminopiperidin-1-yl]carbonyl}-N-[2-(4-chlorophenyl)-4-methylpentyl] imidazo[1,2-a] pyridine-5-carboxamide]
IC50 [5]: < 2 µM

Compound: N[C@@H]1CCCN(C(=O)Cc2cn3c(C(=O)NCC4(c5cccnc5)CCCCC4)cccc3n2)C1 [Compound 947, 2-{2-[(3R)-3-aminopiperidin-1-yl]-2-oxoethyl}-N-[(1-pyridin-3-ylcyclohexyl)methyl] imidazo[1,2-a] pyridine-5-carboxamide]
IC50 [5]: < 2 µM

Compound: CC(C)CC(CNC(=O)c1cccc2nc(CC(=O)N[C@@H]3CCN(C(=O)OC(C)(C)C)C3)cn12)c1ccc(Cl)cc1 (stereo partly shown) [Compound 967, tert-butyl 3-{[(5-{[2-(4-chlorophenyl)-4-methylpentyl]carbamoyl}imidazo[1,2-a]pyridin-2-yl)acetyl]amino} pyrrolidine-1-carboxylate]
IC50 [5]: < 2 µM

Compound: CN(C)C(=O)CNC(=O)c1cn2c(C(=O)NCC34CC5CC(CC(C5)C3)C4)cccc2n1 [Compound 74, 5-N-(adamantan-1-ylmethyl)--[2-(dimethylamino)-2-oxoethyl]imidazo[1,2-a]pyridine-2,5-dicarboxamide]
IC50 [1]: < 2 µM

Compound: CC(C)CC(CNC(=O)c1cccc2nc(C(C)N3CCCC3)cn12)c1ccc(Cl)cc1 (stereo not shown) [Compound 1035, N-[2-(4-chlorophenyl)-4-methylpentyl]-2-(1-pyrrolidin-1-ylethyl) imidazo[1,2-a]pyridine-5-carboxamide]
IC50 (P2X7 calcium mobilization, Example 4A, 50% decrease in the fluorescence response of cells exposed to 80 μM of (2′(3′)-O-(4-benzoyl-benzoyl)adenosine 5′-triphosephate)): < 2 µM

Compound: O=C(NCC12CC3CC(CC(C3)C1)C2)c1cccc2nc(C[S+]([O-])c3nnc[nH]3)cn12 (stereo not shown) [Compound 554, N-(adamantan-1-ylmethyl)-2-[(4H-1,2,4-triazol-3-ylsulfinyl)methyl]imidazo [1,2-a]pyridine-5-carboxamide]
IC50 [4]: < 2 µM

Compound: CCOC(=O)CN(CC)C(=O)c1cn2c(C(=O)NC[C@@H]3CC[C@H]4C[C@@H]3C4(C)C)cccc2n1 [Compound 479, ethyl N-{[5-({[(1S,2R,5S)-6,6-dimethylbicyclo[3.1.1]hept-2-yl]methyl}carbamoyl)imidazo[1,2-a]pyridin-2-yl]carbonyl}-N-ethylglycinate]
IC50 [4]: < 2 µM

Compound: O=C(NCC12CC3CC(CC(C3)C1)C2)c1cccc2nc(CS(=O)(=O)c3nnc[nH]3)cn12 [Compound 449, N-(adamantan-1-ylmethyl)-2-[(4H-1,2,4-triazol-3-ylsulfonyl)methyl] imidazo [1,2-a]pyridine-5-carboxamide]
IC50 [4]: < 2 µM

Compound: CCCN(C)C(=O)c1cn2c(C(=O)NCC(CC(C)C)c3ccccc3)cccc2n1 (stereo not shown) [Compound 262, 2-N-methyl-5-N-(4-methyl-2-phenylpentyl)-2-N-propylimidazo[1,2-a]pyridine-2,5-dicarboxamide]
IC50 [3]: < 2 µM

Compound: CN(C(=O)c1cn2c(C(=O)NC[C@@H]3CC[C@H]4C[C@@H]3C4(C)C)cccc2n1)C1CCCNC1 (stereo partly drawn) [Compound 311, 5-N-{[(1S,2R,5S)-6,6-dimethylbicyclo[3.1.1]hept-2-yl]methyl}-2-N-methyl-2-N-piperidin-3-ylimidazo[1,2-a]pyridine-2,5-dicarboxamide]
IC50 [3]: < 2 µM

Compound: CN(CCO)C(=O)c1cn2c(NC(=O)CC34CC5CC(CC(C5)C3)C4)cccc2n1 [Compound 405, 5-[(adamantan-1-ylacetyl)amino]-N-(2-hydroxyethyl)-N-methylimidazo[1,2-a]pyridine-2-carboxamide]
IC50 [3]: < 2 µM

Compound: CC1(C)[C@H]2CC[C@@H](CNC(=O)c3cccc4nc(C(=O)N5C[C@H]6CC5CN6)cn34)[C@@H]1C2 (stereo in doubt) [Compound 302, 2-[(1R,4R)-2,5-diazabicyclo[2.2.1]hept-2-ylcarbonyl]-N-{[(1S,2R,5S)-6,6-dimethylbicyclo[3.1.1]hept-2-yl]methyl}imidazo[1,2-a]pyridine-5-carboxamide]
IC50 [3]: < 2 µM

Results, then the molecule that gave them:

IC50 [1]: < 2 µM
Compound: CC(=O)N[C@@H]1CCN(Cc2cn3c(C(=O)NCC45CC6CC(CC(C6)C4)C5)cccc3n2)C1 [Compound 70, 2-[(3-acetamidopyrrolidin-1-yl)methyl]-N-(adamantan-1-ylmethyl)imidazo[1,2-a]pyridine-5-carboxamide]

IC50 [2]: < 2 µM
Compound: O=C(NCC12CC3CC(CC(C3)C1)C2)c1cccc2nc(C(=O)N3CC[C@@H](NCCO)C3)cn12 [Compound 747, N-(adamantan-1-ylmethyl)-2-({3-[(2-hydroxyethyl)amino]pyrrolidin-1-yl}carbonyl)imidazo[1,2-a]pyridine-5-carboxamide]

IC50 [2]: < 2 µM
Compound: N[C@@H]1CCCN(C(=O)c2cn3c(C(=O)NCC45CC6CC(CC(C6)C4)C5)cccc3n2)C1 [Compound 724, N-(adamantan-1-ylmethyl)-2-{[(3R)-3-aminopiperidin-1-yl]carbonyl}imidazo[1,2-a]pyridine-5-carboxamide]

IC50 [3]: < 2 µM
Compound: O=C(NCC12CC3CC(CC(C3)C1)C2)c1cccc2nc(CN3CCCC3)cn12 [Compound 286, N-(adamantan-1-ylmethyl)-2-(pyrrolidin-1-ylmethyl)imidazo[1,2-a]pyridine-5-carboxamide]

IC50 [1]: < 2 µM
Compound: CC(=O)NC1CCN(C(=O)Cc2cn3c(C(=O)NCC45CC6CC(CC(C6)C4)C5)cccc3n2)C1 (stereo not shown) [Compound 170, 2-[2-(3-acetamidopyrrolidin-1-yl)-2-oxoethyl]-N-(adamantan-1-ylmethyl)imidazo[1,2-a]pyridine-5-carboxamide]

IC50 [1]: < 2 µM
Compound: C[C@H]1CN(C(=O)Cc2cn3c(C(=O)NCC45CC6CC(CC(C6)C4)C5)cccc3n2)CCN1 [Compound 140, N-(adamantan-1-ylmethyl)-2-{2-[(3S)-3-methylpiperazin-1-yl]-2-oxoethyl}imidazo[1,2-a]pyridine-5-carboxamide]

IC50 [1]: < 2 µM
Compound: NC1CCCN(CCc2cn3c(C(=O)NCC45CC6CC(CC(C6)C4)C5)cccc3n2)C1 (stereo not shown) [Compound 118, 2-[2-(3-amino-piperidin-1-yl)-ethyl]-imidazo[1,2-a]pyridine-5-carboxylic acid (adamantan-1-ylmethyl)-amide]

IC50 [1]: < 2 µM
Compound: COC1CCN(C(=O)Cc2cn3c(C(=O)NCC45CC6CC(CC(C6)C4)C5)cccc3n2)CC1 [Compound 42, N-(adamantan-1-ylmethyl)-2-[2-(4-methoxypiperidin-1-yl)-2-oxoethyl]imidazo[1,2-a]pyridine-5-carboxamide]

IC50 [1]: < 2 µM
Compound: CN(C(=O)c1cn2c(C(=O)NCC34CC5CC(CC(C5)C3)C4)cccc2n1)C1CCOC1 (stereo not shown) [Compound 90, 5-N-(adamantan-1-ylmethyl)--methyl-- (tetrahydrofuran-3-yl)imidazo[1,2-a]pyridine-2,5-dicarboxamide]
